From patent US7193127B1, “Codeinone reductase from alkaloid poppy” (priority 1999, dated 2007)
“Also recorded” adds a separate entry of the source. Like-named read-outs stand apart in the source and are kept apart here.

Columns and labels:
[1] = tested on: COc1ccc2c3c1O[C@H]1C(=O)C=C[C@H]4[C@@H](C2)N(C)CC[C@]314; test: cells, lysate or membranes named
Procedure: (§1) The four codeinone reductase isoform-calmodulin-binding peptide fusion proteins were purified from E. coli lysates in one step with a calmodulin affinity column.
(§2) For all isoforms, the temperature optimum for reduction (physiologically forward reaction) was 28° C., for oxidation (physiologically reverse reaction) was 30° C., the pH optimum for reduction was 6.8 and for oxidation was 9.0.
(§3) For enzyme assays, single colonies were picked and grown in 3 ml Luria-Bertani medium containing 100 μg/ml ampicillin at 37° C. to an OD590 of 0.8. For protein purification, single colonies were picked and grown in 1 l Luria-Bertani medium containing 100 μg/ml ampicillin at 37° C. to an OD590 of 1.8. […] The bacterial pellet from a 3 ml culture was resuspended in 0.5 ml buffer and that from a one liter culture in 100 ml buffer. The cells were ruptured by sonication.

[2] = tested on: codeinone reductase isoforms; assay type: biochemical, Papaver somniferum; details: for serves as substrate in the reductive reaction: NADPH as cofactor, physiologically forward reaction
Procedure: The two other potential substrates for reduction, the 1,2-dehydroreticulinium ion and salutaridine (FIG. 1), or for the physiologically reverse reaction, salutaridinol and (R)-reticuline, were tested as substrates; with the codeinone reductase isoforms.
In order to test for a functional evolutionary relationship between isoflavonoid and alkaloid anabolism, codeinone reductase was analyzed for the ability to substitute for the reductase in the formation of 6-deoxychalcone in co-action with either native chalcone synthase or native stilbene synthase from Pinus sylvestris.

COR1.2 = COR1.2 (Papaver somniferum, UniProt Q9SQ69); test: Km determination with purified recombinant codeinone reductase isoform COR1.2
COR1.2, sequence (Q9SQ69 whole entry, canonical isoform): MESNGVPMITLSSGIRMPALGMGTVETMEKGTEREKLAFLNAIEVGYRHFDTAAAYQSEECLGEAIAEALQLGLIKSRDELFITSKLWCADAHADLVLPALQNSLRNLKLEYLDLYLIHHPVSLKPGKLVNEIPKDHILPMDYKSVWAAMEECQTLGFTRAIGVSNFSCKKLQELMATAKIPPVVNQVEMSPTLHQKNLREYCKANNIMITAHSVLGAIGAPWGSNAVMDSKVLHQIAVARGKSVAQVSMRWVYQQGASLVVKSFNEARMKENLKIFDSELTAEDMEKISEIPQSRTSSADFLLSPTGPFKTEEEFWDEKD
Procedure: as §1, §2, §3

COR1.3 = COR1.3 (Papaver somniferum, UniProt Q9SQ68); test: Km determination with purified recombinant codeinone reductase isoform COR1.3
COR1.3, sequence (Q9SQ68 whole entry, canonical isoform): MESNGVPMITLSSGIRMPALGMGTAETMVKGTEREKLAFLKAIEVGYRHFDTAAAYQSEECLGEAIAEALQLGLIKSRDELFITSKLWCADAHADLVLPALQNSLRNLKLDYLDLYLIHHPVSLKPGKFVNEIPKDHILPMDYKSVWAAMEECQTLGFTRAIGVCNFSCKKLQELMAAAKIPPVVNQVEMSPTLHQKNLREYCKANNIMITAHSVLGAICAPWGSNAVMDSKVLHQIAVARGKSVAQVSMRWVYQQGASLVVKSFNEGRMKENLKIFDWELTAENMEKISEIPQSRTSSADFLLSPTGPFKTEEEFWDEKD
Procedure: as §1, §2, §3

[3] = biological target: T1, reductase of the 6′-deoxychalcone synthase complex (Glycine max, UniProt P26690); test: Codeinone/codeine conversion by the reductase of the 6'-deoxychalcone synthase complex; assay type: biochemical, soybean; details: in the presence of NADPH
T1 sequence (P26690 1-315): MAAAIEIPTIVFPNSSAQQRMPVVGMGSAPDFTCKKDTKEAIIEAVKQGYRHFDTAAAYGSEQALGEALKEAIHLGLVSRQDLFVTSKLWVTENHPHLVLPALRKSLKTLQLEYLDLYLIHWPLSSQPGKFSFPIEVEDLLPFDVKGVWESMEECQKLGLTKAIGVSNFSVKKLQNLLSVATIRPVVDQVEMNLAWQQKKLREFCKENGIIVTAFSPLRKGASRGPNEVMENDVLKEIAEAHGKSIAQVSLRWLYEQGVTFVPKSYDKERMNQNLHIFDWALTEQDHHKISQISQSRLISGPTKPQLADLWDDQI

[4] = analogs and aldo/keto reductase family substrates, direction not given
[5] = NADP as cofactor, physiologically reverse reaction

COR1.2 (Papaver somniferum)
Km [1]: 62 µM

COC1=C[C@]23CCN(C)[C@H](Cc4ccc(OC)c(O)c42)C3=CC1=O [salutaridine]
serves as substrate in the reductive reaction [2]: None of these alkaloids served as substrate

O=C[C@H](O)[C@@H](O)[C@H](O)CO [D-xylose]
transformed by codeinone reductase (tested as substrate) [2, 4]: not transformed

O=C1C=CCCC1 [2-cyclohexene-1-one]
transformed by codeinone reductase (tested as substrate) [2, 4]: not transformed

O=P(O)(O)OC[C@@H](O)[C@@H](O)[C@H](O)[C@@H](O)CO [D-Sorbitol-6-phosphate]
transformed by codeinone reductase (tested as substrate) [2, 4]: not transformed

COc1ccc(C[C@@H]2NCCc3cc(OC)c(O)cc32)cc1O (mixture of isomers) [(S)-norreticuline, (S) and (R)-norreticuline]
transformed by codeinone reductase (tested as substrate) [2, 4]: inactive

COc1ccc2c3c1O[C@H]1C(=O)CC[C@H]4[C@@H](C2)N(C)CC[C@]314 [hydrocodone]
serves as substrate in the reductive reaction [2]: functions

CCCCC[C@H](O)/C=C/[C@H]1C(=O)C[C@H](O)[C@@H]1CCCCCCC(=O)O [prostaglandin D1]
transformed by codeinone reductase (tested as substrate) [2, 4]: not transformed

C[C@]12CCC(=O)C[C@@H]1CC[C@@H]1[C@@H]2CC[C@]2(C)[C@@H](O)CC[C@@H]12 [5α-androstan-17β-ol-3-one]
transformed by codeinone reductase (tested as substrate) [2]: not transformed

NC(=O)c1ccc[n+]([C@@H]2O[C@H](COP(=O)([O-])OP(=O)(O)OC[C@H]3O[C@@H](n4cnc5c(N)ncnc54)[C@H](OP(=O)(O)O)[C@@H]3O)[C@@H](O)[C@H]2O)c1 [NADP]
Km (COR1.2): 58 µM | Km (COR1.3): 45 µM

COC1=C[C@]23CCN(C)[C@H](Cc4ccc(OC)c(O)c42)C3=C[C@@H]1O [salutaridinol]
serves as substrate in the oxidative reaction [2, 5]: None of these alkaloids served as substrate

COc1ccc2c3c1O[C@H]1[C@@H](O)C=C[C@H]4[C@@H](C2)NCC[C@@]341 [norcodeine]
transformed by codeinone reductase (tested as substrate) [2]: inactive

C[C@]12CC[C@H]3[C@@H](CC=C4C[C@@H](O)CC[C@@]43C)[C@@H]1CC[C@@H]2O [5-androstene-3β,17β-diol]
transformed by codeinone reductase (tested as substrate) [2]: not transformed

COR1.3 (Papaver somniferum)
Km [1]: 48 µM

COc1ccc(C[C@H]2NCCc3cc(OC)c(O)cc32)cc1O [(R)-norreticuline]
transformed by codeinone reductase (tested as substrate) [2, 4]: inactive

NC(=O)C1=CN([C@@H]2O[C@H](COP(=O)(O)OP(=O)(O)OC[C@H]3O[C@@H](n4cnc5c(N)ncnc54)[C@H](O)[C@@H]3O)[C@@H](O)[C@H]2O)C=CC1 [NADH]
ability to substitute for NADPH as cofactor ([2]; any of the isoforms): could not substitute for NADPH

COc1ccc(C[C@@H]2c3cc(O)c(OC)cc3CCN2C)cc1O [(R)-reticuline]
serves as substrate in the oxidative reaction [2, 5]: None of these alkaloids served as substrate

COc1ccc2c3c1O[C@H]1C(=O)C=C[C@H]4[C@@H](C2)N(C)CC[C@]314 [codeinone]
reduction by the reductase of the 6′-deoxychalcone synthase complex [3]: could neither reduce

CC(C)CCC[C@@H](C)[C@H]1CC[C@H]2[C@@H]3CC[C@H]4C[C@@H](O)CC[C@]4(C)[C@H]3CC[C@]12C [5α-cholestane-3β-ol]
transformed by codeinone reductase (tested as substrate) [2, 4]: not transformed

CN1CC[C@]23c4c5ccc(O)c4O[C@H]2C(=O)C=C[C@H]3[C@H]1C5 [morphinone]
serves as substrate in the reductive reaction [2]: functions; also recorded: able to reduce

O=C1CCCCC1 [cyclohexanone]
transformed by codeinone reductase (tested as substrate) [2, 4]: not transformed

COc1ccc(CC2=[N+](C)CCc3cc(OC)c(O)cc32)cc1O [1,2-dehydroreticulinium ion]
serves as substrate in the reductive reaction [2]: None of these alkaloids served as substrate

NC(=O)C1=CN([C@@H]2O[C@H](COP(=O)(O)OP(=O)(O)OC[C@H]3O[C@@H](n4cnc5c(N)ncnc54)[C@H](OP(=O)(O)O)[C@@H]3O)[C@@H](O)[C@H]2O)C=CC1 [NADPH]
Km (COR1.2): 220 µM

CN1CC[C@]23c4c5ccc(O)c4O[C@H]2[C@@H](O)C=C[C@H]3[C@H]1C5 [morphine]
serves as substrate in the oxidative reaction [2]: functions

COc1ccc2c3c1O[C@H]1[C@@H](O)CC[C@H]4[C@@H](C2)N(C)CC[C@@]341 [dihydrocodeine]
serves as substrate in the oxidative reaction [2, 5]: functions

COc1ccc(C[C@H]2c3cc(O)c(OC)cc3CCN2C)cc1O [(S)-reticuline]
transformed by codeinone reductase (tested as substrate) [2, 4]: inactive
